Experimental data reported in patent publication US10160747B2, “Compounds and methods for kinase modulation, and indications therefor” (Plexxikon Inc., priority 2016, dated 2018).

Assays:
Type in all cases: biochemical
FLT3-ITD = molecular target: T1, FLT3-ITD (Homo sapiens, UniProt P36888); test: FLT3-ITD recombinant enzyme kinase assay (AlphaScreen); conditions: 8 pt; read-out: FLT3_ITD 8 pt: IC50
T1 sequence (P36888 1-993): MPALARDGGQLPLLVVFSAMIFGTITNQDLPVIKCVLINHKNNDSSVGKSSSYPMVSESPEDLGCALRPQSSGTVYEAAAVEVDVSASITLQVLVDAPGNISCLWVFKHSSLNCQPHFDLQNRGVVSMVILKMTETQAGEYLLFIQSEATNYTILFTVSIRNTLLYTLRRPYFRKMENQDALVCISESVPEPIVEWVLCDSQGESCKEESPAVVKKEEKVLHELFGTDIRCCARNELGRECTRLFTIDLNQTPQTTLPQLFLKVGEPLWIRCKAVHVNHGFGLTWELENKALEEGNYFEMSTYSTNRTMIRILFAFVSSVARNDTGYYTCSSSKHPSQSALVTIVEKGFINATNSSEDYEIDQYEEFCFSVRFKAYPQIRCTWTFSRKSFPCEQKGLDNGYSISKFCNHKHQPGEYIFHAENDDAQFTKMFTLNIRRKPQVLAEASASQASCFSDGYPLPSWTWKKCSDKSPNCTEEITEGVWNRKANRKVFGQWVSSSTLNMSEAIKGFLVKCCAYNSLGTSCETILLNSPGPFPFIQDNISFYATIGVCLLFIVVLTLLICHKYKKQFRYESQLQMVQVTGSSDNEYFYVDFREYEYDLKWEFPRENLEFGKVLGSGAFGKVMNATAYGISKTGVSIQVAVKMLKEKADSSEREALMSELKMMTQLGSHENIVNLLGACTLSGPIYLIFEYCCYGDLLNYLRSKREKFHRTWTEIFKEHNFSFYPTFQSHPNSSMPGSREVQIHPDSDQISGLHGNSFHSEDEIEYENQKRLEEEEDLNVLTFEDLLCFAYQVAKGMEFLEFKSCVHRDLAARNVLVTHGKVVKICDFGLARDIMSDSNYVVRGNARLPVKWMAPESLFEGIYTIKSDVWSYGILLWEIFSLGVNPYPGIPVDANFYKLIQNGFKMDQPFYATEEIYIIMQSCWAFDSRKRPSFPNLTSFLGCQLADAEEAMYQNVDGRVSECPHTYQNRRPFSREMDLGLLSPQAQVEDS
Summary of the method: (§1)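 IC50 values come from AlphaScreen proximity signal: phosphorylated biotin-poly(Glu4-Tyr) (30 nM) bridges streptavidin donor and anti-phosphotyrosine PY20 acceptor beads. Enzyme reactions ran at 100 μM ATP for c-KIT versus 10 μM for both FLT3 mutants (ITD, D835Y); beads added in stop buffer, room temperature.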

FLT3-D835Y = molecular target: T2, FLT3-D835Y (Homo sapiens, UniProt P36888, D835Y); test: FLT3-D835Y recombinant enzyme kinase assay (AlphaScreen); conditions: 8 pt, GMean
T2 construct: purchased Invitrogen PV3967
T2 sequence (P36888 27-993 D835Y): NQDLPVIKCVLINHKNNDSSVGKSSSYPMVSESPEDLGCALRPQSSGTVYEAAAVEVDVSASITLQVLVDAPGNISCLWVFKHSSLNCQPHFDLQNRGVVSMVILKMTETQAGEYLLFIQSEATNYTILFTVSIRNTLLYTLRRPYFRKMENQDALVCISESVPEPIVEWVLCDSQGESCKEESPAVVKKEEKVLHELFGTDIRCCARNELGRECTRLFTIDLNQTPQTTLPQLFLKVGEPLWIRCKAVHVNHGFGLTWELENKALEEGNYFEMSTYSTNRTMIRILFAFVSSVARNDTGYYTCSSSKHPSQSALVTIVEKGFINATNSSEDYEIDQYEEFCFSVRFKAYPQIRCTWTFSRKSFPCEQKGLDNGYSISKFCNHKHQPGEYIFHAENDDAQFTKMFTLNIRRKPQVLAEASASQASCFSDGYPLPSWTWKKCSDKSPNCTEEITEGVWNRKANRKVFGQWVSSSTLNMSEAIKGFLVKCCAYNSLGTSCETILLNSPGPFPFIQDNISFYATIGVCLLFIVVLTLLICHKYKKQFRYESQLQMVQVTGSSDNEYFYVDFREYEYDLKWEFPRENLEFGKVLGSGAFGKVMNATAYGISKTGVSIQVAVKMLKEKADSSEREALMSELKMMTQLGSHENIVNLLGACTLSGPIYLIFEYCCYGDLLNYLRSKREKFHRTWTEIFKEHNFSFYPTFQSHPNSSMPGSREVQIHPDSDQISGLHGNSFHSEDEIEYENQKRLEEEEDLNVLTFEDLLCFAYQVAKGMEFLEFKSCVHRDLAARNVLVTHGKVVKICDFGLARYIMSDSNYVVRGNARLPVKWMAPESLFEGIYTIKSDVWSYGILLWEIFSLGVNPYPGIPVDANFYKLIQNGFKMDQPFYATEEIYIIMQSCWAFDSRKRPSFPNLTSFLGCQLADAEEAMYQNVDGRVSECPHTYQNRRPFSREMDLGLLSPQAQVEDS
Summary of the method: as §1

c-KIT = molecular target: T3, c-KIT (Homo sapiens, UniProt P10721); test: c-KIT recombinant enzyme kinase assay (AlphaScreen); conditions: 100 ATP, 8 pt
T3 construct: purchased Millipore 14-559K
Summary of the method: as §1

Measured: IC50

T3 sequence (P10721 26-976): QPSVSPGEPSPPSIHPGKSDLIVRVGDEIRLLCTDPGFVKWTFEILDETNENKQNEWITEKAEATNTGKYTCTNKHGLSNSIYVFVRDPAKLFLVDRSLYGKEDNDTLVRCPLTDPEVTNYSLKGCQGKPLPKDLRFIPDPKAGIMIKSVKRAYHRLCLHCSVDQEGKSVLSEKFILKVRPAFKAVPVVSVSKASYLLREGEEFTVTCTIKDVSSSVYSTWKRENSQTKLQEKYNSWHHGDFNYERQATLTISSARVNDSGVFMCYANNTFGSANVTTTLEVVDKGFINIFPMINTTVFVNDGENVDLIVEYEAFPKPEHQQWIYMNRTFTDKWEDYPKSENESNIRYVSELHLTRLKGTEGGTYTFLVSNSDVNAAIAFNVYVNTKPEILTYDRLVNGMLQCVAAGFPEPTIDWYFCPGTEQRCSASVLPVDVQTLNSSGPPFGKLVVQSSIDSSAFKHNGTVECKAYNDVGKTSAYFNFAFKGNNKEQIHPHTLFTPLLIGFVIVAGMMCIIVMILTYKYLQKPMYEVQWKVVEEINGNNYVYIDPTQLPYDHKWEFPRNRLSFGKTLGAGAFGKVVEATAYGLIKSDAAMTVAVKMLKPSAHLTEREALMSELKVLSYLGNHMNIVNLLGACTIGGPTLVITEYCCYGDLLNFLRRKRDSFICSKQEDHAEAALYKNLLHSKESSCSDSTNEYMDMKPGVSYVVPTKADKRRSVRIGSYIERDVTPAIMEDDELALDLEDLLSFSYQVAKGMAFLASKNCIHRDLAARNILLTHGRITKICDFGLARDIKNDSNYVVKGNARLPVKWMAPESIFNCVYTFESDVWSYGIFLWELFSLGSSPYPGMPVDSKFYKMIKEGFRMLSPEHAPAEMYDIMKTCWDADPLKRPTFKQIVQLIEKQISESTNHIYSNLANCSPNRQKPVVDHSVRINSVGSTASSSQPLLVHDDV

O=C(Cc1ccc(-c2cnc(Nc3cnn(C4CC4)c3)nc2)cc1F)Nc1cncc(C(F)(F)F)c1 [Compound P-0238, 2-[4-[2-[(1-cyclopropylpyrazol-4-yl)amino]pyrimidin-5-yl]-2-fluoro-phenyl]-N-[5-(trifluoromethyl)-3-pyridyl]acetamide]
0.0001 to 10 µM: all assays above

COCCn1cc(Nc2ncc(-c3ccc(CC(=O)Nc4ccc(C(F)(F)F)nc4)c(F)c3)cn2)cn1 [Compound P-0268, 2-[2-fluoro-4-[2-[[1-(2-methoxyethyl)pyrazol-4-yl]amino]pyrimidin-5-yl]phenyl]-N-[6-(trifluoromethyl)-3-pyridyl]acetamide]
0.0001 to 10 µM: all assays above

CCn1cc(Nc2ncc(-c3ccc(CC(=O)Nc4ccc(C(F)(F)F)cn4)cc3)cn2)cn1 [Compound P-0251, 2-[4-[2-[(1-ethylpyrazol-4-yl)amino]pyrimidin-5-yl]phenyl]-N-[5-(trifluoromethyl)-2-pyridyl]acetamide]
0.0001 to 10 µM: all assays above

Cn1cc(Nc2ncc(-c3ccc(CC(=O)Nc4cncc(C(F)(F)F)c4)cc3F)cn2)cn1 [Compound P-0205, 2-[3-fluoro-4-[2-[(1-methylpyrazol-4-yl)amino]pyrimidin-5-yl]phenyl]-N-[5-(trifluoromethyl)-3-pyridyl]acetamide]
0.0001 to 10 µM: all assays above

COc1ncc(NC(=O)Cc2ccc(-c3cnc4[nH]nc(NC(=O)C(F)(F)F)c4c3)cc2)cc1C(F)(F)F [Compound P-0215, 2,2,2-trifluoro-N-[5-[4-[2-[[6-methoxy-5-(trifluoromethyl)-3-pyridyl]amino]-2-oxo-ethyl]phenyl]-1H-pyrazolo[3,4-b]pyridin-3-yl]acetamide]
0.0001 to 10 µM: all assays above

Cc1nn(C)cc1Nc1ncc(-c2ccc(CC(=O)Nc3cnc(C)c(C(F)(F)F)c3)cc2)cn1 [Compound P-0228, 2-[4-[2-[(1,3-dimethylpyrazol-4-yl)amino]pyrimidin-5-yl]phenyl]-N-[6-methyl-5-(trifluoromethyl)-3-pyridyl]acetamide]
0.0001 to 10 µM: all assays above

CCn1cc(Nc2ncc(-c3ccc(CC(=O)Nc4cc(C(F)(F)F)ccn4)c(F)c3)cn2)cn1 [Compound P-0255, 2-[4-[2-[(1-ethylpyrazol-4-yl)amino]pyrimidin-5-yl]-2-fluoro-phenyl]-N-[4-(trifluoromethyl)-2-pyridyl]acetamide]
0.0001 to 10 µM: all assays above

COc1ncc(NC(=O)Cc2ccc(-c3cnc(Nc4cn[nH]c4C)nc3)cc2)cc1C(F)(F)F [Compound P-0221, N-[6-methoxy-5-(trifluoromethyl)-3-pyridyl]-2-[4-[2-[(5-methyl-1H-pyrazol-4-yl)amino]pyrimidin-5-yl]phenyl]acetamide]
0.0001 to 10 µM: all assays above

Cn1cnc(Nc2ncc(-c3cc(F)c(CC(=O)Nc4cc(C(F)(F)F)ccn4)cc3F)cn2)c1 [Compound P-0020, 2-[2,5-difluoro-4-[2-[(1-methylimidazol-4-yl)amino]pyrimidin-5-yl]phenyl]-N-[4-(trifluoromethyl)-2-pyridyl]acetamide]
0.0001 to 10 µM: all assays above

COc1ncc(NC(=O)Cc2ccc(-c3cnc4[nH]nc(OC)c4c3)cc2)cc1C(F)(F)F [Compound P-0212, 2-[4-(3-methoxy-1H-pyrazolo[3,4-b]pyridin-5-yl)phenyl]-N-[6-methoxy-5-(trifluoromethyl)-3-pyridyl]acetamide]
0.0001 to 10 µM: all assays above

O=C(Cc1ccc(-c2cnc(Nc3cnn(C4CC4)c3)nc2)cc1F)Nc1ccc(C(F)(F)F)nc1 [Compound P-0242, 2-[4-[2-[(1-cyclopropylpyrazol-4-yl)amino]pyrimidin-5-yl]-2-fluoro-phenyl]-N-[6-(trifluoromethyl)-3-pyridyl]acetamide]
0.0001 to 10 µM: all assays above

Cc1ncc(NC(=O)Cc2ccc(-c3cnc(Nc4cnn(C5CC5)c4)nc3)cc2)cc1C(F)(F)F [Compound P-0232, 2-[4-[2-[(1-cyclopropylpyrazol-4-yl)amino]pyrimidin-5-yl]phenyl]-N-[6-methyl-5-(trifluoromethyl)-3-pyridyl]acetamide]
0.0001 to 10 µM: all assays above

COCCn1cc(Nc2ncc(-c3ccc(CC(=O)Nc4cnc(OC)c(C(F)(F)F)c4)cc3)cn2)cn1 [Compound P-0271, 2-[4-[2-[[1-(2-methoxyethyl)pyrazol-4-yl]amino]pyrimidin-5-yl]phenyl]-N-[6-methoxy-5-(trifluoromethyl)-3-pyridyl]acetamide]
0.0001 to 10 µM: all assays above

O=C(Cc1ccc(-c2cnc(Nc3cnn(C4CC4)c3)nc2)cc1)Nc1ccc(C(F)(F)F)cn1 [Compound P-0236, 2-[4-[2-[(1-cyclopropylpyrazol-4-yl)amino]pyrimidin-5-yl]phenyl]-N-[5-(trifluoromethyl)-2-pyridyl]acetamide]
0.0001 to 10 µM: all assays above

Cc1ncc(NC(=O)Cc2ccc(-c3cnc(Nc4cnn(C(F)F)c4)nc3)cc2)cc1C(F)(F)F [Compound P-0210, 2-[4-[2-[[1-(difluoromethyl)pyrazol-4-yl]amino]pyrimidin-5-yl]phenyl]-N-[6-methyl-5-(trifluoromethyl)-3-pyridyl]acetamide]
0.0001 to 10 µM: all assays above

CCn1cc(Nc2ncc(-c3ccc(CC(=O)Nc4cc(C(F)(F)F)ccn4)cc3)cn2)cn1 [Compound P-0250, 2-[4-[2-[(1-ethylpyrazol-4-yl)amino]pyrimidin-5-yl]phenyl]-N-[4-(trifluoromethyl)-2-pyridyl]acetamide]
0.0001 to 10 µM: all assays above

CCn1cc(Nc2ncc(-c3ccc(CC(=O)Nc4cnc(Cl)c(C(F)(F)F)c4)c(F)c3)cn2)cn1 [Compound P-0260, N-[6-chloro-5-(trifluoromethyl)-3-pyridyl]-2-[4-[2-[(1-ethylpyrazol-4-yl)amino]pyrimidin-5-yl]-2-fluoro-phenyl]acetamide]
0.0001 to 10 µM: all assays above

COCCn1cc(Nc2ncc(-c3ccc(CC(=O)Nc4cnc(OC)c(C(F)(F)F)c4)c(F)c3)cn2)cn1 [Compound P-0265, 2-[2-fluoro-4-[2-[[1-(2-methoxyethyl)pyrazol-4-yl]amino]pyrimidin-5-yl]phenyl]-N-[6-methoxy-5-(trifluoromethyl)-3-pyridyl]acetamide]
0.0001 to 10 µM: all assays above
